The text below walks through data of PMC11758220, “Identification of a Privileged Scaffold for Inhibition of Sterol Transport Proteins through the Synthesis and Ring Distortion of Diverse, Pseudo-Natural Products” (ACS Central Science, 2025).

Type in all cases: binding
What all share (settings): single dose, Dose = 10 µM

In one experiment the target is T1, STARD3 (Homo sapiens, UniProt Q14849).
T1 construct: STARD3(216-444); made in house; host or cells: E. coli BL21(DE3)
T1 sequence (Q14849 216-444): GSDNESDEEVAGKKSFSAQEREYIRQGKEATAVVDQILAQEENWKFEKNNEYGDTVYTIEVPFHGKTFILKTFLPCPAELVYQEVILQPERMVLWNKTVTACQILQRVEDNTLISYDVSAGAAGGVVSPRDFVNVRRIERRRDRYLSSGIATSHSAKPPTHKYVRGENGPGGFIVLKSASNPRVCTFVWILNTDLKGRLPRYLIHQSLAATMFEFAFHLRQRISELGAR
As to the kind of experiment: Differential scanning fluorimetry (DSF), STARD3. The text has this:
(§1) Protein expression constructs
(§2) Human ASTER domains of Aster-A(359-547), -B(364-552) and -C(318-504) were subcloned into a pGEX-6p-2rbs vector, thus introducing the cloning artifact ‘GPLGS’.3 The pGEX-6P-1-GST-OSBP(377- […]
(§3) a gift from James H. Hurley (University of California).4 The pHIS_2His6_Thrombin_STARD4(2-205;C75S) plasmid was a gift from Young Jun Im (Chonnam National University).5 STARD5A was a gift from Nicola Burgess-Brown (Addgene plasmid #42392; http://n2t.net/addgene:42392; […]
(§4) Protein expression and purification […]
(§5) vectors including an N-terminal PreScission-cleavable glutathione S-transferase (GST)-tag were expressed in Escherichia coli (E. coli) OverExpress C41 in Terrific Broth (TB) medium for 16 h at 18 °C after the induction with 0.1 mM isopropyl β-D-1-thiogalactopyranoside (IPTG). Cells were harvested at 3500 × g for 15 minutes and lysed by sonication in buffer containing 50 mM HEPES pH 7.5, 300 mM NaCl, 10 %v/v glycerol, 5 mM dithiothreitol (DTT), 0.1 %v/v Triton X-100 and protease inhibitor mix HP plus (Serva). The lysate was purified by affinity chromatography on a GSTrap FF column (Cytiva) using an ÄKTA Start (Cytiva) in buffer containing 50 mM HEPES pH 7.5, 300 mM NaCl, 10 %v/v glycerol, 5 mM DTT and 0.01 %v/v Triton X-100. The GST-tag was cleaved overnight on the column at 4 °C. The Aster sterol binding domains were further purified by size-exclusion chromatography (SEC) on a HiLoad 16/600 Superdex 75 pg (Cytiva) in buffer containing 20 mM HEPES pH 7.5, 300 mM NaCl, 10 %v/v […]
(§6) STARD5(6-213) harboring an N-terminal His6-Tag were expressed in E. coli BL21(DE3) in Luria-Bertani Broth (LB) medium for approximately 16 h at 18 °C after induction with 0.15 mM IPTG. Cells were harvested at 3500 × g for 15 minutes and lysed by sonication in buffer containing 50 mM HEPES pH 7.5, 150 mM NaCl, 5 %v/v glycerol, 5 mM DTT, 0.1 %v/v Triton X -100 and ethylenediaminetetraacetic acid (EDTA)-free protease inhibitor cocktail (Sigma-Aldrich). The cleared lysate was purified by affinity chromatography on a Ni-NTA Superflow Cartridge (Qiagen) using an ÄKTA Start (Cytiva) in buffer containing 50 mM HEPES pH 7.5, 150 mM NaCl, 5 %v/v glycerol, 5 mM DTT. START domains were eluted by using elution buffer containing 50 mM HEPES pH 7.5, 150 mM NaCl, 5 %v/v glycerol, 5 mM DTT and 500 mM imidazole. Proteins were further purified by SEC on a HiLoad 16/600 Superdex 75 pg (Cytiva) in buffer containing 20 mM HEPES pH 7.5, 150 mM NaCl, 5 %v/v glycerol and 2 mM DTT.
(§7) The ORP domain of human OSBP(377-807) in the pGEX-6p-1 vector with an N-terminal PreScission-cleavable GST-tag was expressed in E. coli OverExpress C41 in LB medium for 16 h at 18 °C after induction with 0.1 mM IPTG. Cells were harvested at 3500 × g for 15 minutes and lysed by sonication in buffer containing 20 mM HEPES pH 7.5, 300 mM NaCl, 10 %v/v glycerol, 5 mM DTT, 0.1 %v/v Triton X-100 and EDTA-free protease inhibitor cocktail (Sigma-Aldrich). The cleared lysate was purified by affinity chromatography on a GSTrap HF column (Cytiva) using an ÄKTA Start (Cytiva) in buffer containing 20 mM HEPES pH 7.5, 300 mM NaCl, 10 %v/v glycerol, 5 mM DTT. OSBP(377 -807) was eluted by using elution buffer containing 20 mM HEPES pH 7.5, 300 mM NaCl, 10 %v/v glycerol, 5 mM DTT and 10 mM reduced glutathione. Proteins were further purified by SEC on a HiLoad 16/600 Superdex 75 pg (Cytiva) using an ÄKTA Explorer (Cytiva) in buffer containing 20 mM HEPES pH 7.5, 150 mM NaCl, 10 %v/v glycerol and 2 mM DTT.
(§8) The ORP domains of human ORP1(534-950) in pET24b(+) and ORP2(49-480) in the pET24b(+) vector including an N-terminal His6-Tag were expressed in E. coli BL21(DE3) in TB medium for approximately 16 h at 18 °C after induction with 0.1 mM IPTG. Cells were collected at 3500 × g for 15 minutes and lysed by sonification in buffer containing 10 mM Tris-HCl pH 8, 300 mM NaCl, 5 % glycerol, 2 mM DTT, 0.1 % Triton X-100 and EDTA-free protease inhibitor cocktail (Sigma-Aldrich). The cleared […]

In a further experiment the target is T2, STARD4 (Homo sapiens, UniProt Q96DR4, C75S).
T2 construct: STARD4(2-205; C75S); made in house; host or cells: E. coli BL21(DE3)
T2 sequence (Q96DR4 2-205 C75S): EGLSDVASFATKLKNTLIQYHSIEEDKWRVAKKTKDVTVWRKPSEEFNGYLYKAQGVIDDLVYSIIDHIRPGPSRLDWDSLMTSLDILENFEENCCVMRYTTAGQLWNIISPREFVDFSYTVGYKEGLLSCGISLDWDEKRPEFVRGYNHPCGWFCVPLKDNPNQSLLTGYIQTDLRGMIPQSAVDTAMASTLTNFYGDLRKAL
As to the kind of experiment: Differential scanning fluorimetry (DSF), STARD4.
Source text: as §1, §2, §3, §4, §5, §6, §7, §8
In general terms: In DSF a fluorescence change marks the thermal transition of the protein.

The next experiment addresses T3, STARD5 (Homo sapiens, UniProt Q9NSY2).
T3 construct: STARD5(6-213); host or cells: E. coli BL21(DE3)
T3 sequence (Q9NSY2 6-213): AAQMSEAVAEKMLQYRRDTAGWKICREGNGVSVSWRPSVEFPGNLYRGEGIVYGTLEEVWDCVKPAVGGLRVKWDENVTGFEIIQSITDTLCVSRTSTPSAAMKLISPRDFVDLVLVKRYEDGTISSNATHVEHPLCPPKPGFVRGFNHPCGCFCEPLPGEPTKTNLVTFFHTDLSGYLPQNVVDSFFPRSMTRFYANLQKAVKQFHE
Description: Differential scanning fluorimetry (DSF), STARD5.
Source text: as §1, §2, §3, §4, §5, §6, §7, §8

Consider `Cc1ccc2c(c1)C(=O)[C@]1(CC[C@@H]3C[C@H](O)CC[C@@]31C)N2` [Compound 13], for which the ΔTm at 10 µM is -0.0638 °C at STARD3, 1.1 °C on STARD4 and 0.143 °C on STARD5.

The term ΔTm denotes the shift of the melting midpoint relative to a reference.
